How the values were obtained:
5-Fluorouracil = compound: O=c1[nH]cc(F)c(=O)[nH]1 [5-Fluorouracil]; settings: max 20 µM
How it was run: (§1)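 After 24 hours at 37°C and 5% CO2 in 1536-well plates holding 7.5 μl of DMEM/F12 or RPMI with 10% FBS, cancer cell lines were dosed for 72 hours, with final DMSO typically 0.2%. Viability came from CellTiter-Glo 2.0 luminescence, scaled between the means of blank wells and DMSO wells. A non-linear mixed effects model fitted a two-parameter logistic curve to each dose response to give the single-agent IC50.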

AZD1775 = compound: C=CCn1c(=O)c2cnc(Nc3ccc(N4CCN(C)CC4)cc3)nc2n1-c1cccc(C(C)(C)O)n1 [AZD1775]; settings: max 3 µM
How it was run: as §1

SRA737 = compound: N#Cc1cnc(Nc2cc(NC[C@H]3CNCCO3)c(C(F)(F)F)cn2)cn1 [SRA737]; settings: max 10 µM
How it was run: as §1

AZD5991 = compound: Cc1c2c(nn1C)CSCc1cc(n(C)n1)CSc1cc(c3ccccc3c1)OCCCc1c(C(=O)O)n(C)c3c-2c(Cl)ccc13 [AZD5991]; settings: max 1 µM
How it was run: as §1

Gemcitabine = compound: Nc1ccn([C@@H]2O[C@H](CO)[C@@H](O)C2(F)F)c(=O)n1 [Gemcitabine]; settings: max 0.3 µM
How it was run: as §1

Carboplatin = compound: C1CC(C1)(C(=O)[O-])C(=O)[O-].N.N.[Pt+2] [Carboplatin]; settings: max 10 µM
How it was run: as §1

Savolitinib = compound: C[C@@H](c1ccc2nccn2c1)n1nnc2ncc(-c3cnn(C)c3)nc21 [Savolitinib]; settings: max 1 µM
How it was run: as §1

AZD8186 = compound: C[C@@H](Nc1cc(F)cc(F)c1)c1cc(C(=O)N(C)C)cc2c(=O)cc(N3CCOCC3)oc12 [AZD8186]; settings: max 10 µM
How it was run: as §1

AZD6738 = compound: C[C@@H]1COCCN1C2=NC(=NC(=C2)C3(CC3)[S@](=N)(=O)C)C4=C5C=CNC5=NC=C4 [AZD6738]; settings: max 10 µM
How it was run: as §1

AZD7648 = compound: Cc1cc2ncnn2cc1Nc1ncc2c(n1)n(C1CCOCC1)c(=O)n2C [AZD7648]; settings: max 10 µM
How it was run: as §1

AZD5153 = compound: COc1nnc2ccc(N3CCC(c4ccc(OCCN5CCN(C)C(=O)[C@H]5C)cc4)CC3)nn12 [AZD5153]; settings: max 1 µM
How it was run: as §1

Dasatinib = compound: CC1=C(C(=CC=C1)Cl)NC(=O)C2=CN=C(S2)NC3=CC(=NC(=N3)C)N4CCN(CC4)CCO [Dasatinib]; settings: max 2 µM
How it was run: as §1

Olaparib = compound: O=C(c1cc(Cc2n[nH]c(=O)c3ccccc23)ccc1F)N1CCN(C(=O)C2CC2)CC1 [Olaparib]; settings: max 10 µM
How it was run: as §1

SN-38 = compound: CCc1c2c(nc3ccc(O)cc13)-c1cc3c(c(=O)n1C2)COC(=O)[C@]3(O)CC [SN-38]; settings: max 0.3 µM
How it was run: as §1

[1] = compound: O=C(Nc1ccc2[nH]nc(-c3ccncc3)c2c1)[C@@H]1CCN(CC(=O)N2CCN(c3ccc(-c4ncccn4)cc3)CC2)C1; settings: max 5 µM
How it was run: as §1

Crizotinib = compound: C[C@@H](Oc1cc(-c2cnn(C3CCNCC3)c2)cnc1N)c1c(Cl)ccc(F)c1Cl [Crizotinib]; settings: max 10 µM
How it was run: as §1

Paclitaxel = compound: CC(=O)O[C@H]1C(=O)[C@@]2(C)[C@H]([C@H](OC(=O)c3ccccc3)[C@]3(O)C[C@H](OC(=O)[C@H](O)[C@@H](NC(=O)c4ccccc4)c4ccccc4)C(C)=C1C3(C)C)[C@]1(OC(C)=O)CO[C@@H]1C[C@@H]2O [Paclitaxel]; settings: max 3 µM
How it was run: as §1

AZD5363 = compound: C1CN(CCC1(C(=O)N[C@@H](CCO)C2=CC=C(C=C2)Cl)N)C3=NC=NC4=C3C=CN4 [AZD5363]; settings: max 10 µM
How it was run: as §1

SG3199 = compound: CC1=CN2[C@@H](C1)C=NC3=CC(=C(C=C3C2=O)OC)OCCCCCOC4=C(C=C5C(=C4)N=C[C@@H]6CC(=CN6C5=O)C)OC [SG3199]; settings: max 0.001 µM
How it was run: as §1

Taselisib = compound: Cc1nc(-c2cn3c(n2)-c2ccc(-c4cnn(C(C)(C)C(N)=O)c4)cc2OCC3)n(C(C)C)n1 [Taselisib]; settings: max 10 µM
How it was run: as §1

Venetoclax = compound: CC1(C)CCC(CN2CCN(c3ccc(C(=O)NS(=O)(=O)c4ccc(NCC5CCOCC5)c([N+](=O)[O-])c4)c(Oc4cnc5[nH]ccc5c4)c3)CC2)=C(c2ccc(Cl)cc2)C1 [Venetoclax]; settings: max 1 µM
How it was run: as §1

AZD0156 = compound: CN(C)CCCOc1ccc(-c2ccc3ncc4c(c3c2)n(C2CCOCC2)c(=O)n4C)cn1 [AZD0156]; settings: max 3 µM
How it was run: as §1

Gefitinib = compound: COc1cc2ncnc(Nc3ccc(F)c(Cl)c3)c2cc1OCCCN1CCOCC1 [Gefitinib]; settings: max 10 µM
How it was run: as §1

AZD2811 = compound: CCN(CCO)CCCOc1ccc2c(Nc3cc(CC(=O)Nc4cccc(F)c4)[nH]n3)ncnc2c1 [AZD2811]; settings: max 1 µM
How it was run: as §1

Etoposide = compound: COc1cc([C@@H]2c3cc4c(cc3[C@@H](O[C@@H]3O[C@@H]5CO[C@@H](C)O[C@H]5[C@H](O)[C@H]3O)[C@H]3COC(=O)[C@H]23)OCO4)cc(OC)c1O [Etoposide]; settings: max 10 µM
How it was run: as §1

Alisertib = compound: COc1cc(Nc2ncc3c(n2)-c2ccc(Cl)cc2C(c2c(F)cccc2OC)=NC3)ccc1C(=O)O [Alisertib]; settings: max 10 µM
How it was run: as §1

Prexasertib = compound: COc1cccc(OCCCN)c1-c1cc(Nc2cnc(C#N)cn2)n[nH]1 [Prexasertib]; settings: max 1 µM
How it was run: as §1

AZD1390 = compound: CC(C)n1c(=O)n(C)c2cnc3cc(F)c(-c4ccc(OCCCN5CCCCC5)nc4)cc3c21 [AZD1390]; settings: max 0.3 µM
How it was run: as §1

Doxorubicin = compound: COc1cccc2c1C(=O)c1c(O)c3c(c(O)c1C2=O)C[C@@](O)(C(=O)CO)C[C@@H]3O[C@H]1C[C@H](N)[C@H](O)[C@H](C)O1 [Doxorubicin]; settings: max 1 µM
How it was run: as §1

Selumetinib = compound: Cn1cnc2c(F)c(Nc3ccc(Br)cc3Cl)c(C(=O)NOCCO)cc21 [Selumetinib]; settings: max 10 µM
How it was run: as §1

MK-2206 = compound: NC1(c2ccc(-c3nc4ccn5c(=O)[nH]nc5c4cc3-c3ccccc3)cc2)CCC1 [MK-2206]; settings: max 10 µM
How it was run: as §1

Palbociclib = compound: CC(=O)c1c(C)c2cnc(Nc3ccc(N4CCNCC4)cn3)nc2n(C2CCCC2)c1=O [Palbociclib]; settings: max 10 µM
How it was run: as §1

Lapatinib = compound: CS(=O)(=O)CCNCc1ccc(-c2ccc3ncnc(Nc4ccc(OCc5cccc(F)c5)c(Cl)c4)c3c2)o1 [Lapatinib]; settings: max 10 µM
How it was run: as §1

AZD4320 = compound: CN(CC[C@H](CSC1=CC=CC=C1)NC2=C(C=C(C=C2)S(=O)(=O)NC(=O)C3=CC=C(C=C3)N4CCC(CC4)[C@H](C5=CC=CC=C5C6=CC=C(C=C6)Cl)O)S(=O)(=O)C(F)(F)F)CCO [AZD4320]; settings: max 1 µM
How it was run: as §1

Trametinib = compound: CC(=O)Nc1cccc(-n2c(=O)n(C3CC3)c(=O)c3c(Nc4ccc(I)cc4F)n(C)c(=O)c(C)c32)c1 [Trametinib]; settings: max 1 µM
How it was run: as §1

Cell Line | IC50, cell viability 72 h (5-Fluorouracil) [nM] | IC50, cell viability 72 h (AZD1775) [nM] | IC50, cell viability 72 h (SRA737) [nM] | IC50, cell viability 72 h (AZD5991) [nM] | IC50, cell viability 72 h (Gemcitabine) [nM] | IC50, cell viability 72 h (Carboplatin) [nM] | IC50, cell viability 72 h (Savolitinib) [nM] | IC50, cell viability 72 h (AZD8186) [nM] | IC50, cell viability 72 h (AZD6738) [nM] | IC50, cell viability 72 h (AZD7648) [nM] | IC50, cell viability 72 h (AZD5153) [nM] | IC50, cell viability 72 h (Dasatinib) [nM] | IC50, cell viability 72 h (Olaparib) [nM] | IC50, cell viability 72 h (SN-38) [nM] | IC50, cell viability 72 h [1] [nM] | IC50, cell viability 72 h (Crizotinib) [nM] | IC50, cell viability 72 h (Paclitaxel) [nM] | IC50, cell viability 72 h (AZD5363) [nM] | IC50, cell viability 72 h (SG3199) [nM] | IC50, cell viability 72 h (Taselisib) [nM] | IC50, cell viability 72 h (Venetoclax) [nM] | IC50, cell viability 72 h (AZD0156) [nM] | IC50, cell viability 72 h (Gefitinib) [nM] | IC50, cell viability 72 h (AZD2811) [nM] | IC50, cell viability 72 h (Etoposide) [nM] | IC50, cell viability 72 h (Alisertib) [nM] | IC50, cell viability 72 h (Prexasertib) [nM] | IC50, cell viability 72 h (AZD1390) [nM] | IC50, cell viability 72 h (Doxorubicin) [nM] | IC50, cell viability 72 h (Selumetinib) [nM] | IC50, cell viability 72 h (MK-2206) [nM] | IC50, cell viability 72 h (Palbociclib) [nM] | IC50, cell viability 72 h (Lapatinib) [nM] | IC50, cell viability 72 h (AZD4320) [nM] | IC50, cell viability 72 h (Trametinib) [nM]
HT-29 (Colorectal Carcinoma) | > 20000 | 310 | 4640 | > 1000 | 161 | > 10000 | > 1000 | > 10000 | 2390 | > 10000 | 155 | > 2000 | > 10000 | 64.7 | 436 | 6730 | 18 | > 10000 | > 1 | 2220 | > 1000 | > 3000 | > 10000 | > 1000 | > 10000 | > 10000 | 28.3 | > 300 | > 1000 | 1000 | > 10000 | > 10000 | > 10000 | > 1000 | 11.9
SK-N-FI (Neuroblastoma) | > 20000 | 1600 | > 10000 | > 1000 | > 300 | > 10000 | > 1000 | > 10000 | 8510 | > 10000 | 447 | > 2000 | > 10000 | 157 | > 5000 | > 10000 | 2250 | > 10000 | > 1 | 955 | > 1000 | > 3000 | > 10000 | > 1000 | > 10000 | 2480 | 60.3 | > 300 | > 1000 | 7750 | > 10000 | > 10000 | > 10000 | > 1000 | 117
KARPAS-620 (Plasma Cell Myeloma) | > 20000 | 1480 | > 10000 | 59.9 | > 300 | > 10000 | > 1000 | > 10000 | > 10000 | > 10000 | 167 | > 2000 | > 10000 | > 300 | > 5000 | 4750 | 6.98 | 1620 | > 1 | 501 | 84.6 | > 3000 | > 10000 | > 1000 | > 10000 | 10000 | 80.4 | > 300 | > 1000 | 5720 | 2230 | > 10000 | > 10000 | 5.91 | 929
